Tests used:
Phospholipase D (PLD) = assay: Phospholipase D inhibition, choline release, Lineweaver-Burk analysis; assay type: biochemical; conditions: PLD 3 units/125 μL, phosphatidyl choline substrate, 30° C., pH 7.5
Source text: Phospholipase D (PLD) plays a central role in cellular activation in diverse cell types via the release of the bioactive […], phosphatidate. Several agonists operating through different classes of receptors have been defined that stimulate cellular PLD activity. No known endogenous regulators of PLD have been identified. Activation of neutrophils leads to an increase in intracellular phosphatidic acid that is generated predominantly via the hydrolysis of phosphatidyl choline by phospholipase D (Agwu, DE, et al., Journal of Clinical Investigation 1991; 88:531). Because PSDP inhibited phosphatidate mediated superoxide anion generation in human neutrophil sonicates (Levy, BD, et al., Nature 1997; 389:985), its impact on phospholipase D was determined. A purified enzyme was utilized to directly evaluate the action of PSDP with PLD. Lineweaver-Burk plots for PLD (3 units/125 μL; EC 3.1.4.4, Sigma Chemical Co.) in the presence of EtOH (0.2%) or increasing concentrations of PSDP are reported in FIG. 5. After addition of PSDP to PLD (5 min, 30° C.), phosphatidyl choline (lecithin) in 60 mM Tris/HCl+10 mM CaCl2, pH 7.5 was added (30° C.) and reactions were terminated at 30 second intervals (t0-90 sec) with Tris-HCl (1 M) plus EDTA (50 mM). Choline release was quantitated as in Abousalham A. et al. Biochimica et Biophysica Acta 1;1158 (1993). […]

neutrophils [1] = assay: fMLP-stimulated intracellular calcium mobilization in FURA-2 loaded neutrophils; assay type: cell-based, human; conditions: PSDP 1 μM, 5 min 37° C.; 1 nM fMLP; EDTA 5 mM
Description: Inositol trisphosphate is known to be an important intracellular mediator of calcium mobilization from intracellular stores, a critical event in cellular activation (Exton, JH, Annual Review of Pharmacology and Toxicology 1996; 36:481). In order to determine the functional importance of the PSDP-mediated reduction in IP3 levels, fMLP-stimulated intracellular calcium mobilization in the presence of polyisoprenyl phosphates was measured. FURA-2 (1 μM) loaded neutrophils (10×10^6/2 ml) in the presence of EDTA (5 mM) were exposed (5 min, 37° C.) to PSDP (10−^5-10−^6 M) or EtOH (0.1%), followed by 1 nM fMLP. […] This inhibition was concentration dependent FIG. 7 and significant (n=3, mean±SEM, *P<0.05 by Student's t-test).

Gst-Grb2 fusion protein = target: T1, Gst-Grb2 fusion protein (Homo sapiens, UniProt P62993); assay: PSDP equilibrium binding assay to GST-GRB2
T1 construct: purchased Upstate Biotechnology 14-128
Description: Equilibrium binding was determined for ^32PO4-PSDP (1 μM) to the adaptor protein, Grb2, which is known to carry two SH3 domains and one SH2 domain (Lowenstein, EJ, et al., Cell, 1992; 70:431). […] Bound material was separated from unbound by spin filtration (0.2 μm) and quantitated by scintillation counting.
To 100 μl of 0.9% NaCl was added 2 μg GST-GRB2 with 0-100 μg compound (e.g., delipidated human serum albumin, SH3-bearing SOS peptide or unlabeled PSDP) to be tested. The samples were prepared directly in the top of PGC spin filter tubes.
To the solution was added radiolabeled-PSDP in 1 μl ethanol. The mixture was vortexed and incubated at 37° C. for 30 minutes. After the incubation period, the sample was centrifuged at 2000 rpm at 25° C. for 3 minutes. […] The filter was removed, placed in a scintillation vial and the amount of radioactivity bound to the trapped agarose complex (i.e., bound material) was determined.
1 ml of CHCl3:MeOH (2:1) was added to the filtrate (a clear interface should be evident). […] At this stage, dependent upon the amount of radioactivity present, the radioactivity of the sample was determined either in scintillation fluid or by phosphoimage after TLC. […]
Bound material is reflected in the filtrate by loss of radioactivity when radiolabeled material is incubated in the presence of the GRB2 complex compared to the absence of the agarose complex. […]

neutrophils [2] = assay: Neutrophil homotypic adhesion (aggregation, light transmittance); assay type: cell-based, human
Description: Neutrophils (10^7/500 μl) were electroporated (1.65 kV/cm, 250 μF, Ω∞, Invitrogen Electroporator VI) at 0° C. in the presence of 10−^9-10−^6 M compound VI, VIII, FDP, FMP, squalene or vehicle (ethanol 0.2%). After electroporation, cells, in cytochrome c (0.7 mg/ml), were exposed (10 minutes, 37° C.) to either cytochalasin b (5 μg/mL) and FMLP (10^−7 M)(a) or PMA ((10^−7 M)(b) and supernatants monitored at […]. Electroporation gave a 49.9% reduction in FMLP-stimulated NADPH oxidase compared to naive cells. Values (FIGS. 4a and 4b) represent the mean±SEM for n≧3, d≧6. For adhesion (FIGS. 4c and 4d), changes in light transmittance were monitored (as in Fiore, S., Nicolaou, K. C., Caulfield, T., Kataoka, H. & Serhan, C. N. Biochem. J. 266, 25-31 (1990), the teachings of which are incorporated herein by reference) after addition of compounds VI, VIII (1.6 μM) or vehicle (0.5 min) and FMLP (0.5-5 μM) (2.5 min). Cell viability remained>99%. Values represent the mean±SEM for n=3, d=9. 1,4,5-inositol-triphosphate levels were determined (Amersham) in fresh PMN (10^7 cells) exposed (5 minutes, 37° C.) to compound VI, compound VIII (1 μM) or vehicle and stimulated with FMLP (10^−7M, 37° C.) (as in FIG. 4e). % Inhibition after 10 second exposure to FMLP is reported as mean±SEM for n=4, d≧8. *p <0.05 in Student's paired t-test compared with control, while “NS” indicates no significant change compared to incubations in the presence of vehicle (ethanol 0.2%) alone. Stereochemistry of PSDP and PSMP (FIG. 4f) were assigned by routine methods (Poulter, C. D. and Rilling, H. C. Acc. Chem. Res. 11, 307-313, (1978), the teachings of which are hereby incorporated by reference).

T1 sequence (P62993 whole entry, the tested form may be a part): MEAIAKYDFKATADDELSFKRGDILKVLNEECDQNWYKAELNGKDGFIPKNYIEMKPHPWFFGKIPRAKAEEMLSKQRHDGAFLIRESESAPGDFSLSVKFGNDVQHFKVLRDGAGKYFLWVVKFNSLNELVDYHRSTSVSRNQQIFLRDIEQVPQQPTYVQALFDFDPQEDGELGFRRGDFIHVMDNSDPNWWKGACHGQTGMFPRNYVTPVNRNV

With `CC(C)=CCC/C(C)=C/CC/C(C)=C/C1C(COP(=O)(O)OP(=O)(O)O)C1(C)CC/C=C(\C)CCC=C(C)C` (stereo in doubt) [Compound VI, presqualene diphosphate] the Ki (Phospholipase D (PLD)) was less than 100 nM, the “inhibition of fMLP-stimulated [Ca2+]i mobilization” value (neutrophils [1]) was “inhibition” and the “binding of radiolabeled PSDP to Gst-Grb2 complexed to agarose beads” value (Gst-Grb2 fusion protein; 32PO4-PSDP 1 μM, 20 min 37° C.) was “bound”. For the same compound, the “competition of radioligand (32PO4-PSDP) off Gst-Grb2” value (Gst-Grb2 fusion protein; excess unlabeled PSDP, albumin 50 μg, Sos 50 μg) was “could be competed off”, the “stimulation of adhesion by the compound alone” value (neutrophils [2]; no agonist) was “neither compound VI nor VIII alone stimulated” and the “inhibition of FMLP-stimulated homotypic adhesion” value (neutrophils [2]; μM levels) was “inhibited”. The “inhibition of the aggregatory response to FMLP (homotypic adhesion)” value (neutrophils [2]; μM levels (1.6 μM), FMLP 0.5-5 μM, intact cells, p<0.001) was 63%.

From patent US6416965B2, “Screening methods for presqualene disphosphate analogs” (Brigham and Women's Hospital, priority 1997, dated 2002)
